# Experimental data from the OligoGym collection.
# Values joined by “and” are separate entries in the source; they are usually repeats but may differ in a detail not shown here. Equal values may be shown once. HELM strings list units from the 5' end as sugar, base in round brackets, then linkage (d deoxyribose, r ribose, m 2'-O-methyl, p phosphodiester). Strings are as the collection lists them, not checked against the first reports. ss, as = sense and antisense strand; [lna] = locked nucleic acid (LNA)
# Details: siRNA
# Also: test system not given here.
row,Substance,target mRNA knockdown
1,RNA1{r(C)p.r(U)p.r(U)p.r(A)p.r(C)p.r(G)p.r(C)p.r(U)p.r(G)p.r(A)p.r(G)p.r(U)p.r(A)p.r(C)p.r(U)p.r(U)p.r(C)p.r(G)p.r(A)p.r(T)p.r(T)}|RNA2{r(T)p.r(C)p.r(G)p.r(A)p.r(A)p.[lna](G)p.r(U)p.r(A)p.r(C)p.r(U)p.r(C)p.r(A)p.r(G)p.r(C)p.r(G)p.r(U)p.r(A)p.r(A)p.r(G)p.[lna](T)p.[lna](T)}$$$RNA1{StrandType:ss}|RNA2{StrandType:as}$,85%
2,RNA1{r(C)p.r(U)p.r(U)p.r(A)p.r(C)p.r(G)p.r(C)p.r(U)p.r(G)p.r(A)p.r(G)p.r(U)p.r(A)p.r(C)p.r(U)p.r(U)p.r(C)p.r(G)p.r(A)p.r(T)p.r(T)}|RNA2{r(T)p.r(C)p.r(G)p.r(A)p.r(A)p.r(G)p.[lna](T)p.r(A)p.r(C)p.r(U)p.r(C)p.r(A)p.r(G)p.r(C)p.r(G)p.r(U)p.r(A)p.r(A)p.r(G)p.[lna](T)p.[lna](T)}$$$RNA1{StrandType:ss}|RNA2{StrandType:as}$,93%
3,RNA1{r(C)p.r(U)p.r(U)p.r(A)p.r(C)p.r(G)p.r(C)p.r(U)p.r(G)p.r(A)p.r(G)p.r(U)p.r(A)p.r(C)p.r(U)p.r(U)p.r(C)p.r(G)p.r(A)p.r(T)p.r(T)}|RNA2{r(T)p.r(C)p.r(G)p.r(A)p.r(A)p.r(G)p.r(U)p.[lna](A)p.r(C)p.r(U)p.r(C)p.r(A)p.r(G)p.r(C)p.r(G)p.r(U)p.r(A)p.r(A)p.r(G)p.[lna](T)p.[lna](T)}$$$RNA1{StrandType:ss}|RNA2{StrandType:as}$,90%
4,RNA1{r(C)p.r(U)p.r(U)p.r(A)p.r(C)p.r(G)p.r(C)p.r(U)p.r(G)p.r(A)p.r(G)p.r(U)p.r(A)p.r(C)p.r(U)p.r(U)p.r(C)p.r(G)p.r(A)p.r(T)p.r(T)}|RNA2{r(T)p.r(C)p.r(G)p.r(A)p.r(A)p.r(G)p.r(U)p.r(A)p.r(C)p.[lna](T)p.r(C)p.r(A)p.r(G)p.r(C)p.r(G)p.r(U)p.r(A)p.r(A)p.r(G)p.[lna](T)p.[lna](T)}$$$RNA1{StrandType:ss}|RNA2{StrandType:as}$,60%
5,RNA1{r(C)p.r(U)p.r(U)p.r(A)p.r(C)p.r(G)p.r(C)p.r(U)p.r(G)p.r(A)p.r(G)p.r(U)p.r(A)p.r(C)p.r(U)p.r(U)p.r(C)p.r(G)p.r(A)p.r(T)p.r(T)}|RNA2{r(T)p.r(C)p.r(G)p.r(A)p.r(A)p.r(G)p.r(U)p.r(A)p.r(C)p.r(U)p.r(C)p.[lna](A)p.r(G)p.r(C)p.r(G)p.r(U)p.r(A)p.r(A)p.r(G)p.[lna](T)p.[lna](T)}$$$RNA1{StrandType:ss}|RNA2{StrandType:as}$,70% and 94%
6,RNA1{r(C)p.r(U)p.r(U)p.r(A)p.r(C)p.r(G)p.r(C)p.r(U)p.r(G)p.r(A)p.r(G)p.r(U)p.r(A)p.r(C)p.r(U)p.r(U)p.r(C)p.r(G)p.r(A)p.r(T)p.r(T)}|RNA2{r(T)p.r(C)p.r(G)p.r(A)p.r(A)p.r(G)p.r(U)p.r(A)p.r(C)p.r(U)p.r(C)p.r(A)p.r(G)p.r(C)p.[lna](G)p.r(U)p.r(A)p.r(A)p.r(G)p.[lna](T)p.[lna](T)}$$$RNA1{StrandType:ss}|RNA2{StrandType:as}$,87%
7,RNA1{r(C)p.r(U)p.r(U)p.r(A)p.r(C)p.r(G)p.r(C)p.r(U)p.r(G)p.r(A)p.r(G)p.r(U)p.r(A)p.r(C)p.r(U)p.r(U)p.r(C)p.r(G)p.r(A)p.r(T)p.r(T)}|RNA2{r(T)p.r(C)p.r(G)p.r(A)p.r(A)p.r(G)p.r(U)p.r(A)p.r(C)p.r(U)p.r(C)p.r(A)p.r(G)p.r(C)p.r(G)p.[lna](T)p.r(A)p.r(A)p.r(G)p.[lna](T)p.[lna](T)}$$$RNA1{StrandType:ss}|RNA2{StrandType:as}$,83%
8,RNA1{r(C)p.r(U)p.r(U)p.r(A)p.r(C)p.r(G)p.r(C)p.r(U)p.r(G)p.r(A)p.r(G)p.r(U)p.r(A)p.r(C)p.r(U)p.r(U)p.r(C)p.r(G)p.r(A)p.r(T)p.r(T)}|RNA2{r(T)p.r(C)p.r(G)p.r(A)p.r(A)p.r(G)p.r(U)p.r(A)p.r(C)p.r(U)p.r(C)p.r(A)p.r(G)p.r(C)p.r(G)p.r(U)p.[lna](A)p.r(A)p.r(G)p.[lna](T)p.[lna](T)}$$$RNA1{StrandType:ss}|RNA2{StrandType:as}$,96%
9,RNA1{r(C)p.r(U)p.r(U)p.r(A)p.r(C)p.r(G)p.r(C)p.r(U)p.r(G)p.r(A)p.r(G)p.r(U)p.r(A)p.r(C)p.r(U)p.r(U)p.r(C)p.r(G)p.r(A)p.r(T)p.r(T)}|RNA2{r(T)p.r(C)p.r(G)p.r(A)p.r(A)p.r(G)p.r(U)p.r(A)p.r(C)p.r(U)p.r(C)p.r(A)p.r(G)p.r(C)p.r(G)p.r(U)p.r(A)p.[lna](A)p.r(G)p.[lna](T)p.[lna](T)}$$$RNA1{StrandType:ss}|RNA2{StrandType:as}$,95%
10,RNA1{r(C)p.r(U)p.r(U)p.r(A)p.r(C)p.r(G)p.r(C)p.r(U)p.r(G)p.r(A)p.r(G)p.r(U)p.r(A)p.r(C)p.r(U)p.r(U)p.r(C)p.r(G)p.r(A)p.r(T)p.r(T)}|RNA2{r(T)p.r(C)p.r(G)p.r(A)p.r(A)p.r(G)p.r(U)p.r(A)p.r(C)p.r(U)p.r(C)p.r(A)p.r(G)p.r(C)p.r(G)p.r(U)p.r(A)p.r(A)p.[lna](G)p.[lna](T)p.[lna](T)}$$$RNA1{StrandType:ss}|RNA2{StrandType:as}$,92%
11,RNA1{r(C)p.r(U)p.r(U)p.r(A)p.r(C)p.r(G)p.r(C)p.r(U)p.r(G)p.r(A)p.r(G)p.r(U)p.r(A)p.r(C)p.r(U)p.r(U)p.r(C)p.r(G)p.r(A)p.r(T)p.r(T)}|RNA2{r(U)p.[lna](C)p.r(G)p.r(A)p.r(A)p.r(G)p.r(U)p.r(A)p.r(C)p.r(U)p.r(C)p.r(A)p.r(G)p.r(C)p.r(G)p.r(U)p.r(A)p.r(A)p.r(G)p.r(T)p.r(T)}$$$RNA1{StrandType:ss}|RNA2{StrandType:as}$,0%
12,RNA1{r(C)p.r(U)p.r(U)p.r(A)p.r(C)p.r(G)p.r(C)p.r(U)p.r(G)p.r(A)p.r(G)p.r(U)p.r(A)p.r(C)p.r(U)p.r(U)p.r(C)p.r(G)p.r(A)p.r(T)p.r(T)}|RNA2{r(U)p.r(C)p.[lna](G)p.r(A)p.r(A)p.r(G)p.r(U)p.r(A)p.r(C)p.r(U)p.r(C)p.r(A)p.r(G)p.r(C)p.r(G)p.r(U)p.r(A)p.r(A)p.r(G)p.r(T)p.r(T)}$$$RNA1{StrandType:ss}|RNA2{StrandType:as}$,82%
13,RNA1{r(C)p.r(U)p.r(U)p.r(A)p.r(C)p.r(G)p.r(C)p.r(U)p.r(G)p.r(A)p.r(G)p.r(U)p.r(A)p.r(C)p.r(U)p.r(U)p.r(C)p.r(G)p.r(A)p.r(T)p.r(T)}|RNA2{r(U)p.r(C)p.r(G)p.[lna](A)p.r(A)p.r(G)p.r(U)p.r(A)p.r(C)p.r(U)p.r(C)p.r(A)p.r(G)p.r(C)p.r(G)p.r(U)p.r(A)p.r(A)p.r(G)p.r(T)p.r(T)}$$$RNA1{StrandType:ss}|RNA2{StrandType:as}$,85%
14,RNA1{r(C)p.r(U)p.r(U)p.r(A)p.r(C)p.r(G)p.r(C)p.r(U)p.r(G)p.r(A)p.r(G)p.r(U)p.r(A)p.r(C)p.r(U)p.r(U)p.r(C)p.r(G)p.r(A)p.r(T)p.r(T)}|RNA2{r(U)p.r(C)p.r(G)p.r(A)p.[lna](A)p.r(G)p.r(U)p.r(A)p.r(C)p.r(U)p.r(C)p.r(A)p.r(G)p.r(C)p.r(G)p.r(U)p.r(A)p.r(A)p.r(G)p.r(T)p.r(T)}$$$RNA1{StrandType:ss}|RNA2{StrandType:as}$,83%
15,RNA1{r(C)p.r(U)p.r(U)p.r(A)p.r(C)p.r(G)p.r(C)p.r(U)p.r(G)p.r(A)p.r(G)p.r(U)p.r(A)p.r(C)p.r(U)p.r(U)p.r(C)p.r(G)p.r(A)p.r(T)p.r(T)}|RNA2{r(U)p.r(C)p.r(G)p.r(A)p.r(A)p.[lna](G)p.r(U)p.r(A)p.r(C)p.r(U)p.r(C)p.r(A)p.r(G)p.r(C)p.r(G)p.r(U)p.r(A)p.r(A)p.r(G)p.r(T)p.r(T)}$$$RNA1{StrandType:ss}|RNA2{StrandType:as}$,82%
16,RNA1{r(C)p.r(U)p.r(U)p.r(A)p.r(C)p.r(G)p.r(C)p.r(U)p.r(G)p.r(A)p.r(G)p.r(U)p.r(A)p.r(C)p.r(U)p.r(U)p.r(C)p.r(G)p.r(A)p.r(T)p.r(T)}|RNA2{r(U)p.r(C)p.r(G)p.r(A)p.r(A)p.r(G)p.[lna](U)p.r(A)p.r(C)p.r(U)p.r(C)p.r(A)p.r(G)p.r(C)p.r(G)p.r(U)p.r(A)p.r(A)p.r(G)p.r(T)p.r(T)}$$$RNA1{StrandType:ss}|RNA2{StrandType:as}$,81%
17,RNA1{r(C)p.r(U)p.r(U)p.r(A)p.r(C)p.r(G)p.r(C)p.r(U)p.r(G)p.r(A)p.r(G)p.r(U)p.r(A)p.r(C)p.r(U)p.r(U)p.r(C)p.r(G)p.r(A)p.r(T)p.r(T)}|RNA2{r(U)p.r(C)p.r(G)p.r(A)p.r(A)p.r(G)p.r(U)p.[lna](A)p.r(C)p.r(U)p.r(C)p.r(A)p.r(G)p.r(C)p.r(G)p.r(U)p.r(A)p.r(A)p.r(G)p.r(T)p.r(T)}$$$RNA1{StrandType:ss}|RNA2{StrandType:as}$,86%
18,RNA1{r(C)p.r(U)p.r(U)p.r(A)p.r(C)p.r(G)p.r(C)p.r(U)p.r(G)p.r(A)p.r(G)p.r(U)p.r(A)p.r(C)p.r(U)p.r(U)p.r(C)p.r(G)p.r(A)p.r(T)p.r(T)}|RNA2{r(U)p.r(C)p.r(G)p.r(A)p.r(A)p.r(G)p.r(U)p.r(A)p.[lna](C)p.r(U)p.r(C)p.r(A)p.r(G)p.r(C)p.r(G)p.r(U)p.r(A)p.r(A)p.r(G)p.r(T)p.r(T)}$$$RNA1{StrandType:ss}|RNA2{StrandType:as}$,85%
19,RNA1{r(C)p.r(U)p.r(U)p.r(A)p.r(C)p.r(G)p.r(C)p.r(U)p.r(G)p.r(A)p.r(G)p.r(U)p.r(A)p.r(C)p.r(U)p.r(U)p.r(C)p.r(G)p.r(A)p.r(T)p.r(T)}|RNA2{r(U)p.r(C)p.r(G)p.r(A)p.r(A)p.r(G)p.r(U)p.r(A)p.r(C)p.r(U)p.[lna](C)p.r(A)p.r(G)p.r(C)p.r(G)p.r(U)p.r(A)p.r(A)p.r(G)p.r(T)p.r(T)}$$$RNA1{StrandType:ss}|RNA2{StrandType:as}$,50%
20,RNA1{r(C)p.r(U)p.r(U)p.r(A)p.r(C)p.r(G)p.r(C)p.r(U)p.r(G)p.r(A)p.r(G)p.r(U)p.r(A)p.r(C)p.r(U)p.r(U)p.r(C)p.r(G)p.r(A)p.r(T)p.r(T)}|RNA2{r(U)p.r(C)p.r(G)p.r(A)p.r(A)p.r(G)p.r(U)p.r(A)p.r(C)p.r(U)p.r(C)p.[lna](A)p.r(G)p.r(C)p.r(G)p.r(U)p.r(A)p.r(A)p.r(G)p.r(T)p.r(T)}$$$RNA1{StrandType:ss}|RNA2{StrandType:as}$,89%
